The target in one data set is MIC1. In words: SPR binding of PROTACs to immobilized antibody MIC1. The following applies: binding of PROTACs to MIC1, steady-state model. As for the experimental part: The binding affinities of hit antibodies MIC1 and MIC2 to a diverse set of VH032-based PROTACs (FIGS. 8A-8B) was determined by surface plasmon resonance (SPR) in a Biacore T200 instrument. The running buffer consist of PBS, 0.05% Tween-20, 2% DMSO and temperature and flow rate were set to 30° C. and 30 μL/min, respectively. The assay setup is depicted exemplarily in FIG. 7A. CM5 sensor chips were coated with antibody (=ligand; 2500 RU) using standard EDC/NHS chemistry. PROTACs (=analytes) were serially diluted (1 μM-1.9 nM) in running buffer, injected to the instrument in consecutive runs and were captured by the antibody resulting in an increase of the corresponding SPR response. After the association step (300 s), running buffer was injected for 600 s and the PROTAC dissociated from the antibody leading to signal decrease. After each run, residual bound PROTAC was removed from the immobilized antibody by injection of 10 mM glycine/HCl, pH 1.5 for 2×30 s regenerating the antibody for the next association and dissociation cycle. To compensate for matrix effects, the measured SPR response signal was subtracted by the analyte response to an inactivated (EDC/NHS, ethanol amine) reference surface omitting the ligand. Furthermore, a DMSO solvent correction was performed and analyte response was subtracted by the running buffer signal. […]
A general note: In SPR one partner is held on a chip, and binding of the other changes the refractive index at the surface.

A further data set relates to MV411 xenograft. The data set can be described thus: MV411 xenograft efficacy study in female CB17 SCID mice. The format is in vivo, mouse. Here is the method:
Human leukemic MV411 cells were xenografted in immunocompromised mice. Three million MV411 cells were injected subcutaneously in the left flank of untreated female CB17 SCID mice. Randomization of the animals in the different treatment groups and the initiation of the treatment was started after the average tumor size reached 45 mm^2. The control groups were treated with vehicle. The test groups were treated with 0.38 mg/kg GNE987 and 30 mg/kg CD33xMIC7+GNE987 (loaded with 0.38 mg/kg GNE987) once (at day 1). Further, two groups were treated twice, either with 30 mg/kg CD33xMIC7+GNE987 (loaded with 0.38 mg/kg GNE987) at day 1 followed by treatment with 0.38 mg/kg GNE987 at day 8 or with 0.38 mg/kg GNE987 at day 1 and 8. Additionally, one group received 30 mg/kg CD33xMIC5+GNE987 (loaded with 0.38 mg/kg GNE987) once (at day 1) and another group received the antibody control 30 mg/kg CD33xMIC7 without PROTAC once (at day 1). The individual groups were stopped before tumors reached a maximum tumor size (225 mm^2) (FIG. 49).

A short description of another data set: Mouse serum stability. It counts as in vitro ADME. The following applies: 5 μM, 37° C. As for the experimental part:
The mixture was incubated 2 hours at room temperature while shaking at 650 rpm. 15% (vol/vol) 2 M HEPES buffer pH 7.55 were added to mouse serum from Biowest (Lot.no. S18169S2160) followed by sterile filtration.
The incubation was stopped by freezing at −20° C.
The concentration of PROTAC GNE987 was quantified using LC-MS.
Quantification was performed using a total antibody ELISA (FIG. 24).

The subject of another data set is HEPG2 cells. The data set can be described thus: CellTiter-Glo cell viability assay (MIC2-based PAX). The following applies: EGFR-negative HEPG2, complexes at 50% loading. Here is the method:
2000 cells per well were seeded into white-opaque 384-well plates followed by overnight incubation in a humid chamber at 37° C. and 5% CO2. Complexation was performed as described in chapter 7.4.
The solutions were added to the cells based on the antibody concentration using Tecan D300e dispenser and all wells were normalized to the same volume using 0.3% TW20 in PBS pH 7.4 and DMSO. The assay was developed after 3 days if not otherwise stated using CellTiter-Glo Luminescent Cell Viability Assay as described in the manufacturer's protocol. In brief, the plates were equilibrated to room temperature for 30 minutes. 100 mL CellTiter-Glo Buffer were added to the CellTiter-Glo Substrate Flask and mixed well. 30 μL of the reagent was transferred to each well. After incubation for 3 minutes at room temperature while shaking at 550 rpm, the plate was incubated for another 10 minutes at room temperature. The luminescence was read on an Envision reader. The evaluation was performed using GraphPad Prism 8 by normalization of cells treated with sample to untreated cells. The data were fitted with 4 point logistic curve to determine the IC50 value.
(In general: In ATP-based viability assays light output follows the ATP content of the culture.)

The conditions of data set [1]: Pillow, T. H. et al., ChemMedChem 15 (2020) 17-25; cited from earlier work.
A further data set relates to OVCAR3. The data set can be described thus: CellTiter-Glo cell viability assay (VHH-based PAX). The following applies: OVCAR3, PROTAC alone. As for the experimental part: (§1) Several cell viability experiments were performed following the procedure described below: Cells were seeded in different media into white cell culture-treated flat and clear bottom multiwell plates followed by overnight incubation in a humid chamber at 37° C. and 5% CO2. Complexation was performed as described in chapter 7.4.
(§2) The solutions were added to the cells based on the antibody concentration using nanodrop dispension using a Tecan D300e Digital Dispenser and all wells were normalized to the same volume using 0.3% TW20 in PBS pH 7.4 and DMSO to a final solvent concentration of 0.05% DMSO and 0.003% TW20. Incubation was performed at 37° C. at 5% or 10% CO2 dependent on the medium. The assay was developed after 3 days if not otherwise stated using CellTiter-Glo Luminescent Cell Viability Assay as described in the manufacturer's protocol. In brief, the plates were equilibrated to room temperature for 30 minutes. 100 mL CellTiter-Glo Buffer were added to the CellTiter-Glo Substrate Flask and mixed well. 30 μL of the reagent was transferred to each well. After incubation for 3 minutes at room temperature while shaking at 550 rpm, the plate was incubated for another 10 minutes at room temperature. The luminescence was read on an Envision reader from Perkin Elmer. Solvent alone and Bortezomib (1.0E-05 M) served as high control (100% viability) and low control (0% viability), respectively. Raw data were converted into percent cell viability relative to the high and low control, which were set to 100% and 0%, respectively. […] The concentration corresponds to the concentration of PROTACs in the PAX.

A further data set deals with SKBR3. In words: CellTiter-Glo cell viability assay (VHH-based PAX). Conditions: SKBR3, PROTAC alone. Here is the method:
as §1, §2

The next data set concerns SW620. The data set can be described thus: CellTiter-Glo cell viability assay (VHH-based PAX). The following applies: SW620, PROTAC alone. As for the experimental part: as §1, §2
The subject of the next data set is RAMOS cells. In words: CellTiter-Glo cell viability assay (VHH-based PAX). The following applies: PROTAC alone. Here is the method:
as §1, §2

For the next data set, the system named is A549. In words: CellTiter-Glo cell viability assay (VHH-based PAX). Conditions: A549, PROTAC alone. Here is the method:
as §1, §2

Another data set concerns NCIN87. In words: CellTiter-Glo cell viability assay (VHH-based PAX). Conditions: NCIN87, PROTAC alone. As for the experimental part: as §1, §2

Consider `Cc1ncsc1-c1ccc([C@H](C)NC(=O)[C@@H]2C[C@@H](O)CN2C(=O)[C@@H](NC(=O)COCCCOCCNC(=O)C[C@@H]2N=C(c3ccc(Cl)cc3)c3c(sc(C)c3C)-n3c(C)nnc32)C(C)(C)C)cc1` [ARV771], for which, on MIC1, the Kd (commonly the equilibrium constant for the complex coming apart) turned out to be 6.5 nM.
`Cc1ncsc1-c1ccc(CNC(=O)[C@@H]2C[C@@H](O)CN2C(=O)[C@@H](NC(=O)CCCCCCCCCCNC(=O)c2cc3c(cc2CS(C)(=O)=O)-c2cn(C)c(=O)c4[nH]cc(c24)CN3c2ncc(F)cc2F)C(C)(C)C)cc1` [GNE987]: the “day post re-dosing where tumors started to grow again” value in the data set on MV411 xenograft (0.38 mg/kg GNE987 at day 1 and 8) was approximately 3 days. The “anti-tumor effect (in words)” value with MV411 xenograft (dosed once at day 1) is on record as “induced anti-tumor effects”. In addition, the “day until which tumor growth was inhibited / tumors started to progress” value in the data set on MV411 xenograft (single dose at day 1 (0.38 mg/kg GNE987 or 30 mg/kg PAX)) was approximately 4 days. In the data set “Mouse serum stability”, the “stability of GNE987 in mouse serum (LC-MS)” value is “stable over 72 hours”. In addition, the IC50 (commonly the point on the concentration scale where inhibition reaches its midpoint) in the data set on HEPG2 cells amounted to 3.1 nM; in the data set on OVCAR3, 0.4 nM; in the data set with SKBR3, 0.39 nM; in the data set on SW620 it was 0.84 nM; with RAMOS cells it was 0.058 nM; in the data set on A549, 1.4 nM. Moreover, the IC50 in the data set with NCIN87 was found to be 0.53 nM. In addition, in data set [1], the “half-life reported in literature” value was 2.8 h.

(Values after patent US20250312468A1, “ANTI-PROTAC ANTIBODIES AND COMPLEXES” (Merck Patent GmbH, priority 2021, published 2025).)
